1 compound from patent publication US20250127799A1, “DRUG CONJUGATES FOR BONE MARROW PROTECTION” (priority 2023, published 2025) can be followed below.

In this assay the test system is CD2F1 male mice. The experiment in a line: In vivo radioprotective effects: 30-day survival after Cobalt-60 gamma irradiation. To be noted: 24 h before 9.2 Gy. On the procedure: (§1) CD2F1 male mice (N=16) were subcutaneously (sc) injected with a single dose of two different conjugates. For one protective drug conjugate (Conjugate 1), the tested doses were 200, 400, and 800 mg/kg. The structure of Conjugate 1 included amifostine as the protective drug, alendronate as the bone-targeting ligand, and a protease-cleavable peptide having the sequence of CKPLGLWAL (SEQ ID NO: 33) with acetylation at the N-terminus (e.g., AcCKPLGLWAL; SEQ ID NO: 74). […] The irradiated mice were monitored for survival for 30 days post-irradiation. […] For the vehicle control group, the mortalities of mice occurred during 8 to 17 days post-irradiation, and the final survival rate was 6.25% (1 out of 16 survived), indicating significant mortality by gamma-irradiation.
For another protective drug conjugate (Conjugate 2), the tested doses were 250, 500, 600, and 700 mg/kg, and the irradiation was conducted at 24 h post-drug administration. The structure of Conjugate 2 included amifostine as the protective drug, alendronate as the bone-targeting ligand, and a protease-cleavable peptide having the sequence of CPLGLYAL (SEQ ID NO: 29) with acetylation at the N-terminus (e.g., AcCPLGLYAL; SEQ ID NO: 76).
as §1, with “a” for “two different conjugates. For one”, “1), and” for “1),”, “250, 300,” for “200, 400,”, “350” for “800”, “0% (0” for “6.25% (1”
as §1, with “CD2F1 male mice (N=16) were subcutaneously (sc) injected CD2F1” for “CD2F1”, “a” for “two different conjugates. For one”, “1), and” for “1),”, “250, 300,” for “200, 400,”, “350” for “800”
CD2F1 male mice (N=16) were subcutaneously (sc) injected CD2F1 male mice (N=16) were subcutaneously (sc) injected with a single dose of a protective drug conjugate (Conjugate 1), and the tested doses were 50, 100, and 200 mg/kg. The structure of Conjugate 1 included amifostine as the protective drug, alendronate as the bone-targeting ligand, and a protease-cleavable peptide having the sequence of CKPLGLWAL (SEQ ID NO: 33) with acetylation at the N-terminus (e.g., AcCKPLGLWAL; SEQ ID NO: 74). […] The irradiated mice were monitored for survival for […] post-irradiation. […] For the vehicle control group, the mortalities of mice occurred during 8 to 17 days post-irradiation, and the final survival rate was 0% (0 out of 16 survived), indicating significant mortality by gamma-irradiation.
CD2F1 male mice (N=16) were subcutaneously (sc) injected CD2F1 male mice (N=16) were subcutaneously (sc) injected with a single dose of a protective drug conjugate, i.e., Conjugate 3. The tested doses were 250, 300, and 350 mg/kg. […]

Peptide text beside a SMILES is read from it. * marks the point of attachment. X1 = O=C(CCCCCN1C(=O)CC(*)C1=O)NCCCC(O)(P(=O)(O)O)P(=O)(O)O; X2 = O=P(O)(O)SCCNCCCN*

Turning to `CC(=O)N[C@@H](CSC1CC(=O)N(CCCCCC(=O)NCCCC(O)(P(=O)(O)O)P(=O)(O)O)C1=O)C(=O)N1CCC[C@H]1C(=O)N[C@@H](CC(C)C)C(=O)NCC(=O)N[C@@H](CC(C)C)C(=O)N[C@@H](Cc1ccc(O)cc1)C(=O)N[C@@H](C)C(=O)N[C@@H](CC(C)C)C(=O)NCCCNCCSP(=O)(O)O` (stereo partly shown) [Conjugate 2] (Ac-C(X1)PLGLYAL-X2), the 30-day survival rate by setting is: (250 mg/kg sc) 68.75%; (500 mg/kg sc) 75%; (600 mg/kg sc) 93.75%; (700 mg/kg sc) 100%.
